Source: patent US20130123355A1, “Fatty acids and metal ions compositions and uses thereof” (priority 2011, published 2013)

Legend:
C57BL/6J mice [1] = experiment: d-amphetamine induced hyperlocomotion, acute injection; assay type: in vivo; details: injected 15.5 mg/Kg elemental lithium fifteen minutes after d-amphetamine (0.5 mg/Kg), observed 120 minutes, compared with the fatty acid alone or lithium chloride
Experimental: C57BL/6J mice are injected with d-amphetamine (0.5 mg/Kg) and increased locomotion is measured. Fifteen minutes later, Li-DHA, or lithium chloride dose is injected to deliver 15.5 mg/Kg elemental lithium. […] Subsequently, the mice are observed for hyperlocomotion for the next 120 minutes using automated video recording device.
C57BL/6J mice are injected with d-amphetamine (0.5 mg/Kg) and increased locomotion is measured. Fifteen minutes later, Li-DHA-lysoPC, or lithium chloride dose is injected to deliver 15.5 mg/Kg elemental lithium. […] Subsequently, the mice are observed for hyperlocomotion for the next 120 minutes using automated video recording device.
C57BL/6J mice are injected with d-amphetamine (0.5 mg/Kg) and increased locomotion is measured. Fifteen minutes later, Li-EPA, or lithium chloride dose is injected to deliver 15.5 mg/Kg elemental lithium. […] Subsequently, the mice are observed for hyperlocomotion for the next 120 minutes using automated video recording device.

Sprague-Dawley rats = experiment: Forced Swim Test; assay type: in vivo; details: diet, about 15.5 mg/Kg/day elemental lithium, compared with the fatty acid alone or lithium carbonate
Source text: Sprague-Dawley rats are fed diet supplemented with Mg-DHA, Mg Citrate, or DHA. […] Various established parameters of antidepressant activity including reduced immobility time, increased swimming, and increased climbing behavior are quantitated to assess the antidepressant activity.
Sprague-Dawley rats are fed diet supplemented with Mg-DHA-LysoPC, Mg Citrate, or DHA-lysoPC. […] Various established parameters of antidepressant activity including reduced immobility time, increased swimming, and increased climbing behavior are quantitated to assess the antidepressant activity.
Sprague-Dawley rats are fed diet supplemented with Mg-EPA, Mg Citrate, or EPA. […] Various established parameters of antidepressant activity including reduced immobility time, increased swimming, and increased climbing behavior are quantitated to assess the antidepressant activity.
(§1) Sprague-Dawley rats are fed diet supplemented with Zn-DHA, Zinc gluconate, or DHA. On Zn-DHA or Zinc gluconate supplemented diet, rats consume about 1 mg/kg body weight/day of elemental zinc, on a feeding schedule so as to maintain 85% of its free-feeding weight. […] Various established parameters of antidepressant activity including reduced immobility time, increased swimming, and increased climbing behavior are quantitated to assess the antidepressant activity.
as §1, with “Zn-DHA-lysoPC, zinc” for “Zn-DHA, Zinc”, “Zn-DHA-lysoPC” for “Zn-DHA”, “zinc” for “Zinc”
as §1, with “Zn-EPA, zinc” for “Zn-DHA, Zinc”, “EPA.” for “DHA.”, “Zn-EPA” for “Zn-DHA”, “zinc” for “Zinc”
Sprague-Dawley rats are fed diet supplemented with Li-DHA, lithium carbonate, or DHA. […] Various established parameters of antidepressant activity including reduced immobility time, increased swimming, and increased climbing behavior are quantitated to assess the antidepressant activity.
Sprague-Dawley rats are fed diet supplemented with Li-DHA-lysoPC, lithium carbonate, or DHA. […] Various established parameters of antidepressant activity including reduced immobility time, increased swimming, and increased climbing behavior are quantitated to assess the antidepressant activity.
Sprague-Dawley rats are fed diet supplemented with Li-EPA, lithium carbonate, or EPA. […] Various established parameters of antidepressant activity including reduced immobility time, increased swimming, and increased climbing behavior are quantitated to assess the antidepressant activity.

C57BL/6J mice [2] = experiment: d-amphetamine induced hyperlocomotion, supplemented diet; assay type: in vivo; details: about 15.5 mg/Kg/day elemental lithium, 0.5 mg/Kg d-amphetamine on days 0, 7, 14, 21, compared with the fatty acid alone or lithium chloride
Experimental: C57BL/6J mice are fed diet supplemented with Li-DHA, lithium chloride, or DHA. On Li-DHA or lithium chloride supplemented diet, mice consume, on an average, about 15.5 mg/Kg/day of elemental lithium, on a feeding schedule so as to maintain 85% of its free-feeding weight. […] On 0, 7, 14, and 21 days of starting the supplement diet, mice are injected with 0.5 mg/Kg d-amphetamine and observed for hyperlocomotion using automated video recording device.
C57BL/6J mice are fed diet supplemented with Li-DHA-lysoPC, lithium chloride, or DHA-lysoPC. On Li-DHA-lysoPC or lithium chloride supplemented diet, mice consume, on an average, about 15.5 mg/Kg/day of elemental lithium, on a feeding schedule so as to maintain 85% of its free-feeding weight. […] On 0, 7, 14, and 21 days of starting the supplement diet, mice are injected with 0.5 mg/Kg d-amphetamine and observed for hyperlocomotion using automated video recording device.
C57BL/6J mice are fed diet supplemented with Li-EPA, lithium chloride, or EPA. On Li-EPA or lithium chloride supplemented diet, mice consume, on an average, about 15.5 mg/Kg/day of elemental lithium, on a feeding schedule so as to maintain 85% of its free-feeding weight. […] On 0, 7, 14, and 21 days of starting the supplement diet, mice are injected with 0.5 mg/Kg d-amphetamine and observed for hyperlocomotion using automated video recording device.

[3] = Li levels in cerebrospinal fluid of rats fed Li compositions; assay type: in vivo, Sprague-Dawley rats; details: oral gavage, about 20 mg elemental Li per Kg per day for 3 weeks, compared with lithium carbonate
Experimental: Sprague-Dawley rats are fed various […] compositions by oral gavage so as to provide about 20 mg of elemental Li per Kg per day for 3 weeks. The lithium compositions include Li-DHA, Li-DHA-LysoPC and Li-EPA. Control rats were administered equivalent molar amount of Lithium carbonate. Cerebrospinal fluid is collected at the end of the treatment, and lithium is measured by atomic absorption spectroscopy.

[4] = test system: Patients presenting symptoms of bipolar disorder; experiment: Hamilton Depression Rating scale, Beck Depression Inventory and Young Mania Rating Scale in bipolar disorder; assay type: in vivo, human; details: 113 mg elemental Li 3 to 4 times a day for two weeks, with standard of care, compared with lithium carbonate or the fatty acid alone
[5] = test system: Patients presenting symptoms of depression; experiment: Hamilton Depression Rating scale and Beck Depression Inventory in depression; assay type: in vivo, human; details: 113 mg elemental Li 3 to 4 times a day for two weeks, with standard of care, compared with lithium carbonate or the fatty acid alone
Experimental: Patients presenting symptoms of depression, in addition to being provided standard of care for depression, are prescribed Mg-DHA or Mg Citrate capsules formulated to provide 150 mg of elemental magnesium, or DHA capsules for two weeks when recovery from depression is assessed.
Patients presenting symptoms of depression, in addition to being provided standard of care for depression, are prescribed Mg-DHA-LysoPC or Mg Citrate capsules formulated to provide 150 mg of elemental magnesium, or DHA-LysoPC capsules for two weeks when recovery from depression is assessed.
Patients presenting symptoms of depression, in addition to being provided standard of care for depression, are prescribed Mg-EPA or Mg Citrate capsules formulated to provide 150 mg of elemental magnesium, or EPA capsules for two weeks when recovery from depression is assessed.
(§2) Patients presenting symptoms of depression, in addition to being provided standard of care for depression, are prescribed Zn-DHA or zinc gluconate capsules formulated to provide a daily dosage of 30 mg of elemental zinc, or DHA capsules for two weeks when recovery from depression is assessed.
as §2, with “Zn-DHA-LysoPC” for “Zn-DHA”, “DHA-LysoPC” for “DHA”
Patients presenting symptoms of depression, in addition to being provided standard of care for depression, are prescribed Zn-EPA or zinc gluconate capsules that provide a daily dosage of 30 mg of elemental Zn, or EPA capsules for two weeks when recovery from depression is assessed.

[6] = intravenous infusion for 5 days; cited from earlier work

Row | Structure (SMILES) | induced hyperlocomotion (C57BL/6J mice [1]) | immobility time (Sprague-Dawley rats) | swimming and climbing behavior (Sprague-Dawley rats) | induced hyperlocomotion (C57BL/6J mice [2]) | CSF levels of lithium [3] | Hamilton Depression Rating scale, Beck Depression Inventory and Young Mania Rating Scale scores [4] | Hamilton Depression Rating scale and Beck Depression Inventory scores [5] | Mg levels in the brain [6] | increase of blood levels of magnesium [6] [fold]
1 | CC/C=C\C/C=C\C/C=C\C/C=C\C/C=C\C/C=C\CCC(=O)[O-].[Li+] [Li-DHA] | lower levels | reduction | significant increase | lower levels | higher | statistically significant improvement | statistically significant improvement | – | –
2 | CC/C=C\C/C=C\C/C=C\C/C=C\C/C=C\CCCC(=O)[O-].[Li+] [Li-EPA] | lower levels | reduction | significant increase | lower levels | higher | statistically significant improvement | statistically significant improvement | – | –
3 | O=S(=O)([O-])[O-].[Mg+2] [magnesium sulfate] | – | – | – | – | – | – | – | failed to increase | 3
